# According to article PMC7688903 (Frontiers in Microbiology, 2020):
# Entries after “also recorded” stand apart in the source; their conditions may differ. Counter-ions that a name gives are not always drawn.
# Legend:
# [1] = system: C. albicans ATCC 10231; test: microbe, parasite or virus in culture; type: cell-based, Candida albicans; conditions: Candida albicans, ATCC10231; C. albicans ATCC 10231; RPMI 1640, 35°C, 48 h; visual; independent triplicate assays; read-out: MIC
# Protocol: (§1) The antimicrobial activities of the peptides were tested against E. coli ATCC 25922, P. aeruginosa ATCC 27853, carbapenem-resistant P. aeruginosa SIPI-012, A. baumannii ATCC 19606, carbapenem-resistant A. baumannii SIPI-025, S. aureus ATCC 25923, and C. albicans ATCC 10231. The minimum inhibitory concentration (MIC) values were determined using the microdilution method according to Clinical and Laboratory Standards Institute guidelines ([CLSI, 2008], [2012]). The peptides were dissolved in 10 mM PB to a concentration of 1280 μg/mL as stock solutions.
# (§2) For inoculum preparation of bacteria, morphologically similar colonies selected from fresh MH agar plates were transferred using a loop into approximately 10 mL of MH broth in a capped test tube and vortexed. The suspension was adjusted with MH broth to achieve a turbidity equivalent to a 0.5 McFarland standard (BaSO4 solution prepared spectrophotometrically). A working suspension was prepared by making a 1:15 dilution followed by a 1:20 dilution of the stock suspension with MH broth medium to obtain approximately 5 × 10^5 CFU/mL. For inoculum preparation of yeast, five fresh colonies of approximately 1 mm diameter were picked from 24-hour-old cultures of C. albicans and suspended in 5 mL of sterile 0.85% saline. The resulting suspension was vortexed and the cell density was adjusted by adding sufficient sterile saline to achieve a turbidity equivalent to a 0.5 McFarland standard. A working suspension was prepared by making a 1:100 dilution followed by a 1:20 dilution of the stock suspension with RPMI 1640 broth medium to obtain 0.5 × 10^3 to 2.5 × 10^3 CFU/mL. Intermediate twofold dilutions of the peptides were prepared in MH broth and RPMI 1640 medium, and 90 μL aliquots were added to each well in addition to 10 μL of the inoculum prepared above.
# (§3) Each plate included a growth control well and a sterility (uninoculated) control well. Colistin, vancomycin hydrochloride, and amphotericin B were used as positive controls for gram-negative bacteria, gram-positive bacteria, and fungi, respectively. The bacterial and fungal plates were incubated at 37°C for 20 h and 35°C for 48 h, respectively, both under ambient atmosphere. The inhibition of microbial growth was assessed visually. The MICs were determined from independent triplicate assays.
# [2] = system: S. aureus ATCC 25923; test: microbe, parasite or virus in culture; type: cell-based, Staphylococcus aureus; conditions: Staphylococcus aureus, ATCC25923, 20 h
# Protocol: as §1, §2, §3
# [3] = system: Trypsin; test: trypsin in 0.1 M NH4HCO3 buffer (pH 8.2); conditions: 37°C, up to 24 h
Compound,fragment found [3],further results
"C[C@@H]1[C@H](O)[C@@H](C)/C=C/C=C/C=C/C=C/C=C/C=C/C=C/[C@H](O[C@@H]2O[C@H](C)[C@@H](O)[C@H](N)[C@@H]2O)C[C@@H]2O[C@](O)(C[C@@H](O)C[C@@H](O)[C@H](O)CC[C@@H](O)C[C@@H](O)CC(=O)O[C@H]1C)C[C@H](O)[C@H]2C(=O)O [AmB, amphotericin B, reference compound]",–,MIC [1]: 0.25 µg/mL
"CN[C@H](CC(C)C)C(=O)N[C@H]1C(=O)N[C@@H](CC(N)=O)C(=O)N[C@H]2C(=O)N[C@H]3C(=O)N[C@H](C(=O)N[C@H](C(=O)O)c4cc(O)cc(O)c4-c4cc3ccc4O)[C@H](O)c3ccc(c(Cl)c3)Oc3cc2cc(c3O[C@@H]2O[C@H](CO)[C@@H](O)[C@H](O)[C@H]2O[C@H]2C[C@](C)(N)[C@H](O)[C@H](C)O2)Oc2ccc(cc2Cl)[C@H]1O [Van, vancomycin hydrochloride, reference compound]",–,MIC [2]: 0.5 µg/mL
KRLFkkLLKYLRkF,"(k) kLLK (Y) 6–9, major, 18 h; also recorded: (K) YLR (k) 10–12, major, 18 h; also recorded: (K) YLRkF 10–14, major, 18 h; also recorded: (K) RLFk (k) 2–5, major, 18 h",–
krLFkkLLkYLrkF,"krLFkkLLkYLr (k) 1–12, major, 18 h; also recorded: (r) LFkkLLkYLr (k) 3–12, major, 18 h",–
